Source: PMC3474704 (Clinical cancer research : an official journal of the …, 2012)

What was measured:
Type in all cases: in vivo, mouse
[1] = test system: HT29 xenografts; experiment: HT29 xenograft growth delay, combination with gemcitabine; conditions: gemcitabine alone 100mg/kg i.v. days 0, 7, 14
[2] = test system: Calu6 xenografts; experiment: Calu6 xenograft growth delay, combination with gemcitabine; conditions: Calu6 xenografts; CCT244747 75mg/kg p.o. or gemcitabine 100mg/kg i.v. alone
[3] = test system: HT29 tumors; experiment: HT29 xenograft growth delay, combination with irinotecan; conditions: HT29 tumors; irinotecan alone 25mg/kg i.p. days 0, 4, 8

## Nc1ccn([C@@H]2O[C@H](CO)[C@@H](O)C2(F)F)c(=O)n1 [gemcitabine, reference compound]
[1]
  growth delay: 2.3 days
[2]
  antitumor activity of each agent alone: minimal activity

## CCc1c2c(nc3ccc(OC(=O)N4CCC(N5CCCCC5)CC4)cc13)-c1cc3c(c(=O)n1C2)COC(=O)[C@]3(O)CC [irinotecan, reference compound]
[3]
  growth delay: 6.9 days
